Source: patent publication US12018033B2, “Inhibitors of protein arginine deiminases” (Forward Therapeutics, Inc., priority 2018, dated 2024)

target: T1, Recombinant human PAD4 (2-663) (Homo sapiens, UniProt Q9UM07); assay: PAD4 Inhibition Assay; assay type: biochemical; details: 60 mins pre-incubation at RT; substrate BAEE with CaCl2; fluorescent signal (λex 405/λem 460)
T1 construct: Recombinant human PAD4 (2-663) was expressed in E. coli; made in house; host or cells: E. coli
Description: Protein: Recombinant human PAD4 (2-663) was expressed in E. coli as an N-terminal Strep-tag and C-terminal 6-his tag fusion protein. Protein was purified using Strep-tactin resin followed by size exclusion chromatography. Tags were not removed during purification. Activity of the protein was determined using ammonia quantification assay.
PAD4 enzyme (10 μL) was diluted to concentration of 75 nM in assay buffer A (100 mM HEPES, pH 8, 50 mM NaCl, 2 mM DTT, 0.6 mg/mL BSA and 0.5% DMSO) and added to wells containing 10 μL of various concentrations of test compound, or DMSO vehicle in buffer A with 1.5% final DMSO concentration in a Corning high volume 384 well black plate. Following 60 mins pre-incubation at RT with gentle shaking, the reaction was initiated by the addition of 10 μL of substrate buffer containing 3 mM N-α-benzoyl-L-arginine ethyl ester (BAEE) and 600 μM CaCl2) in assay buffer A. The reaction was stopped after 60 mins with the addition of 15 μL stop/detection buffer containing 7.5 mM phthalaldehyde, 50 mM EDTA and 7.5 mM DTT in assay buffer A. Quenched reactions were incubated at RT for 45 mins before measuring fluorescent signal (λex 405/λem 460) on an Envision plate reader (Perkin Elmer Life Sciences, Waltham, Mass., USA).

T1 sequence (Q9UM07 2-663): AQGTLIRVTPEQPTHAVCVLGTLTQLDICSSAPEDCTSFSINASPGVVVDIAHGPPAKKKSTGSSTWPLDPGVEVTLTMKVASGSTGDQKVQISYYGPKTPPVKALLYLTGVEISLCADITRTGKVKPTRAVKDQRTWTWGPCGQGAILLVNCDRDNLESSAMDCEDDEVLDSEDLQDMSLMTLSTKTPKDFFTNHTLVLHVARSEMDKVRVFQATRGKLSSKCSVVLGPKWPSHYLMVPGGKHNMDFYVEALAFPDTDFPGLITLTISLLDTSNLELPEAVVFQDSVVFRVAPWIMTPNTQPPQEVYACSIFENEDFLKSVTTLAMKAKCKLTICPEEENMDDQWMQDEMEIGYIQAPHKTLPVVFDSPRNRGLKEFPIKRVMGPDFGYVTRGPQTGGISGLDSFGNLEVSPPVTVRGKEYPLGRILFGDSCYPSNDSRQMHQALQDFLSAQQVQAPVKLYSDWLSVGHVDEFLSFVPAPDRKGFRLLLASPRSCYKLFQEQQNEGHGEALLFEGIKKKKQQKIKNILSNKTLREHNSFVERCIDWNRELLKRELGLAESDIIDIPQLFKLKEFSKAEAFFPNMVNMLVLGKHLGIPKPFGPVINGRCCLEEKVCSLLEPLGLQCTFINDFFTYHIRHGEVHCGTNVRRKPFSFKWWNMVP

Compared with `C[C@@H](CN)NC(=O)c1cc2cc(Cl)c(F)c(F)c2[nH]1` [Example 9, (S)-N-(1-Aminopropan-2-yl)-5-chloro-6,7-difluoro-1H-indole-2-carboxamide], `C[C@H](CN)NC(=O)c1cc2cc(Cl)c(F)c(F)c2[nH]1` [Example 21, (R)-N-(1-Aminopropan-2-yl)-5-chloro-6,7-difluoro-1H-indole-2-carboxamide] is higher in IC50: at most 1 µM for the first, 10 to 100 µM for the second.

`N[C@H]1CN(C(=O)c2cc3cc(Br)c(F)c(F)c3[nH]2)C[C@@H]1O` [Example 65, ((3S,4S)-3-amino-4-hydroxypyrrolidin-1-yl)(5-bromo-6,7-difluoro-1H-indol-2-yl)methanone] and `N[C@H]1CN(C(=O)c2cc3cc(Br)c(F)c(F)c3[nH]2)C[C@H]1O` [Example 67, ((3S,4R)-3-amino-4-hydroxypyrrolidin-1-yl)(5-bromo-6,7-difluoro-1H-indol-2-yl)methanone] fall in the same range of IC50: 1 to 10 µM for the first, 1 to 10 µM for the second.

`N[C@@H]1CCN(C(=O)c2cc3cc(Br)ccc3[nH]2)C1` [Example 48, (R)-(3-Aminopyrrolidin-1-yl)(5-bromo-1H-indol-2-yl)methanone] and `N[C@@H]1CCN(C(=O)c2cc3cc(Cl)ccc3[nH]2)C1` [Example 8, (R)-(3-Aminopyrrolidin-1-yl)(5-chloro-1H-indol-2-yl)methanone] fall in the same range of IC50: 1 to 10 µM for the first, 1 to 10 µM for the second.

`N[C@@H]1CCN(C(=O)c2cc3cc(F)c(Cl)c(F)c3[nH]2)C1` [Example 4, (R)-(3-Aminopyrrolidin-1-yl)(6-chloro-5,7-difluoro-1H-indol-2-yl)methanone] and `N[C@H]1CCN(C(=O)c2cc3cc(Cl)c(F)c(F)c3[nH]2)C1` [Example 27, (S)-(3-Aminopyrrolidin-1-yl)(5-chloro-6,7-difluoro-1H-indol-2-yl)methanone] cannot be ordered by IC50: 1 to 10 µM for the first, at most 1 µM for the second.

Compared with `N[C@@H]1CCN(C(=O)c2cc3cc(Cl)cc(Cl)c3[nH]2)C1` [Example 45, (R)-(3-Aminopyrrolidin-1-yl)(5,7-dichloro-1H-indol-2-yl)methanone], `N[C@@H]1CCN(C(=O)c2cc3cc(Cl)c(Cl)cc3[nH]2)C1` [Example 44, (R)-(3-Aminopyrrolidin-1-yl)(5,6-dichloro-1H-indol-2-yl)methanone] is lower in IC50: 10 to 100 µM for the first, 1 to 10 µM for the second.

First: N[C@@H]1CCN(C(=O)c2cc3cc(F)ccc3[nH]2)C1 [Example 49, (R)-(3-Aminopyrrolidin-1-yl)(5-fluoro-1H-indol-2-yl)methanone]
Second: N[C@@H]1CCN(C(=O)c2cc3ccc(Cl)cc3[nH]2)C1 [Example 46, (R)-(3-Aminopyrrolidin-1-yl)(6-chloro-1H-indol-2-yl)methanone]
The IC50 of the first is higher: 10 to 100 µM for the first, 1 to 10 µM for the second.

`O=C(N[C@@H]1CNC[C@@H]1O)c1cc2cc(Cl)c(F)c(F)c2[nH]1` [Example 16, 5-Chloro-6,7-difluoro-N-((3R,4S)-4-hydroxypyrrolidin-3-yl)-1H-indole-2-carboxamide] and `C[C@H]1CNC[C@H]1NC(=O)c1cc2cc(Cl)c(F)c(F)c2[nH]1` [Example 14, 5-Chloro-6,7-difluoro-N-((3S,4S)-4-methylpyrrolidin-3-yl)-1H-indole-2-carboxamide] cannot be ordered by IC50: 1 to 10 µM for the first, at most 1 µM for the second.

`N[C@H]1CN(C(=O)c2cc3cc(Cl)c(F)c(F)c3[nH]2)C[C@H]1O` [Example 32, ((3S,4R)-3-Amino-4-hydroxypyrrolidin-1-yl)(5-chloro-6,7-difluoro-1H-indol-2-yl)methanone] and `N[C@H]1CN(C(=O)c2cc3cc(I)c(F)c(F)c3[nH]2)C[C@@H]1O` [Example 66, ((3S,4S)-3-amino-4-hydroxypyrrolidin-1-yl)(6,7-difluoro-5-iodo-1H-indol-2-yl)methanone] fall in the same range of IC50: 1 to 10 µM for the first, 1 to 10 µM for the second.

`C[C@@H](CN)N(C)C(=O)c1cc2cc(Cl)c(F)c(F)c2[nH]1` [Example 64, (S)-N-(1-aminopropan-2-yl)-5-chloro-6,7-difluoro-N-methyl-1H-indole-2-carboxamide] and `CC[C@@H](CN)NC(=O)c1cc2cc(Cl)c(F)c(F)c2[nH]1` [Example 10, (S)-N-(1-Aminobutan-2-yl)-5-chloro-6,7-difluoro-1H-indole-2-carboxamide] fall in the same range of IC50: 1 to 10 µM for the first, 1 to 10 µM for the second.

`NCC1(NC(=O)c2cc3cc(Cl)c(F)c(F)c3[nH]2)COC1` [Example 12, N-(3-(Aminomethyl)oxetan-3-yl)-5-chloro-6,7-difluoro-1H-indole-2-carboxamide] and `O=C(NC[C@@H]1CCNC1)c1cc2cc(Cl)c(F)c(F)c2[nH]1` [Example 63, (R)-5-chloro-6,7-difluoro-N-(pyrrolidin-3-ylmethyl)-1H-indole-2-carboxamide] fall in the same range of IC50: 10 to 100 µM for the first, 10 to 100 µM for the second.

First: N[C@@H]1CCN(C(=O)c2cc3cc(F)c(F)c(F)c3[nH]2)C1 [Example 3, (R)-(3-Aminopyrrolidin-1-yl)(5,6,7-trifluoro-1H-indol-2-yl)methanone]
Second: N[C@@H]1CCCN(C(=O)c2cc3cc(Cl)c(F)c(F)c3[nH]2)C1 [Example 38, (R)-(3-Aminopiperidin-1-yl)(5-chloro-6,7-difluoro-1H-indol-2-yl)methanone]
The IC50 of the first is lower: 1 to 10 µM for the first, 10 to 100 µM for the second.

`C[C@H]1CNC[C@@H]1NC(=O)c1cc2cc(Cl)c(F)c(F)c2[nH]1` [Example 36, 5-Chloro-6,7-difluoro-N-((3R,4S)-4-methylpyrrolidin-3-yl)-1H-indole-2-carboxamide] and `O=C(N[C@H]1CCNC1)c1cc2cc(Cl)c(F)c(F)c2[nH]1` [Example 26, (S)-5-Chloro-6,7-difluoro-N-(pyrrolidin-3-yl)-1H-indole-2-carboxamide] fall in the same range of IC50: 1 to 10 µM for the first, 1 to 10 µM for the second.

First: N[C@H]1CN(C(=O)c2cc3cc(Cl)c(F)c(F)c3[nH]2)CC[C@H]1F [Example 43, ((3S,4R)-3-Amino-4-fluoropiperidin-1-yl)(5-chloro-6,7-difluoro-1H-indol-2-yl)methanone]
Second: N[C@H]1CN(C(=O)c2cc3cc(Cl)c(F)c(F)c3[nH]2)CC[C@@H]1F [Example 42, ((3S,4S)-3-Amino-4-fluoropiperidin-1-yl)(5-chloro-6,7-difluoro-1H-indol-2-yl)methanone]
The IC50 of the first is higher: over 100 µM for the first, 10 to 100 µM for the second. The second is the more potent here.

`CC(C)(C)[C@@H](CN)NC(=O)c1cc2cc(Cl)c(F)c(F)c2[nH]1` [Example 28, (S)-N-(1-Amino-3,3-dimethylbutan-2-yl)-5-chloro-6,7-difluoro-1H-indole-2-carboxamide] gave an IC50 of 10 to 100 µM.
